Assays:
MOLT-4 = assay: NCI single dose screen, MOLT-4; assay type: cell-based; details: Homo sapiens; MOLT-4, leukaemia; single dose 10^−5 M; read-out: growth inhibition percentage
Method: (§1) Screening of the anticancer activity of the newly synthesised compounds (6a, 6c, 6d, 6e, 6j, 6l, 6m, 6n, 6o, and 6p) was performed by the US National Cancer Institute (NCI) using 60 different human tumour cell lines in accordance with standard procedures formerly reported.
(§2) In vitro anticancer screening was carried out for the selected compounds at a single dose (10^−5 M) against 60 different human tumour cell lines of nine different cancer cell types: leukaemia, lung, colon, CNS, melanoma, ovarian, renal, prostate, and breast cancers.

A549/ATCC = assay: NCI single dose screen, A549/ATCC; assay type: cell-based; details: Homo sapiens, non-small cell lung cancer, single dose 10^−5 M, read-out: growth inhibition percentage
Method: as §1, §2

HCT-116 = assay: NCI single dose screen, HCT-116; assay type: cell-based; details: Homo sapiens; HCT-116, colon cancer; single dose 10^−5 M; read-out: growth inhibition percentage
Method: as §1, §2

SNB-19 = assay: NCI single dose screen, SNB-19; assay type: cell-based; details: Homo sapiens; SNB-19, CNS cancer; single dose 10^−5 M; read-out: growth inhibition percentage
Method: as §1, §2

HS 578T = assay: NCI single dose screen, HS 578T; assay type: cell-based; details: Homo sapiens, breast cancer, single dose 10^−5 M, read-out: growth inhibition percentage
Method: as §1, §2

SF-268 = assay: NCI single dose screen, SF-268; assay type: cell-based; details: Homo sapiens; SF-268, CNS cancer; single dose 10^−5 M; read-out: growth inhibition percentage
Method: as §1, §2

HOP-62 = assay: NCI single dose screen, HOP-62; assay type: cell-based; details: Homo sapiens; HOP-62, non-small cell lung cancer; single dose 10^−5 M; read-out: growth inhibition percentage
Method: as §1, §2

[1] = system: LPS-induced TNF-α production in RAW 264.7 cells; assay: TNF-α production in LPS-activated RAW 264.7 cells (ELISA); assay type: cell-based; details: LPS-activated RAW 264.7 cells treated with 25 µM of the compound
COLO 205 = assay: NCI single dose screen, COLO 205; assay type: cell-based; details: Homo sapiens; COLO 205, colon cancer; single dose 10^−5 M; read-out: growth inhibition percentage
Method: as §1, §2

786-0 = assay: NCI single dose screen, 786-0; assay type: cell-based; details: Homo sapiens; 786-0, renal cancer; single dose 10^−5 M; read-out: growth inhibition percentage
Method: as §1, §2

IGROV1 = assay: NCI single dose screen, IGROV1; assay type: cell-based; details: Homo sapiens, IGROV-1; IGROV1, ovarian cancer; single dose 10^−5 M; read-out: growth inhibition percentage
Method: as §1, §2

RPMI-8226 = assay: NCI single dose screen, RPMI-8226; assay type: cell-based; details: Homo sapiens; RPMI-8226, leukaemia; single dose 10^−5 M; read-out: growth inhibition percentage
Method: as §1, §2

HL-60(TB) = assay: NCI single dose screen, HL-60(TB); assay type: cell-based; details: Homo sapiens, leukaemia, single dose 10^−5 M, read-out: growth inhibition percentage
Method: as §1, §2

MDA-MB-435 = assay: NCI single dose screen, MDA-MB-435; assay type: cell-based; details: Homo sapiens; MDA-MB-435, melanoma; single dose 10^−5 M; read-out: growth inhibition percentage
Method: as §1, §2

SF-295 = assay: NCI single dose screen, SF-295; assay type: cell-based; details: Homo sapiens; SF-295, CNS cancer; single dose 10^−5 M; read-out: growth inhibition percentage
Method: as §1, §2

UO-31 = assay: NCI single dose screen, UO-31; assay type: cell-based; details: Homo sapiens; UO-31, renal cancer; single dose 10^−5 M; read-out: growth inhibition percentage
Method: as §1, §2

LOX IMVI = assay: NCI single dose screen, LOX IMVI; assay type: cell-based; details: Homo sapiens, melanoma, single dose 10^−5 M, read-out: growth inhibition percentage
Method: as §1, §2

OVCAR-5 = assay: NCI single dose screen, OVCAR-5; assay type: cell-based; details: Homo sapiens; OVCAR-5, ovarian cancer; single dose 10^−5 M; read-out: growth inhibition percentage
Method: as §1, §2

MCF7 = assay: NCI single dose screen, MCF7; assay type: cell-based; details: Homo sapiens; MCF7, breast cancer; single dose 10^−5 M; read-out: growth inhibition percentage
Method: as §1, §2

T-47D = assay: NCI single dose screen, T-47D; assay type: cell-based; details: Homo sapiens, T47D, breast cancer, single dose 10^−5 M, read-out: growth inhibition percentage
Method: as §1, §2

MALME-3M = assay: NCI single dose screen, MALME-3M; assay type: cell-based; details: Homo sapiens, melanoma, single dose 10^−5 M, read-out: growth inhibition percentage
Method: as §1, §2

M14 = assay: NCI single dose screen, M14; assay type: cell-based; details: Homo sapiens; M14, melanoma; single dose 10^−5 M; read-out: growth inhibition percentage
Method: as §1, §2

OVCAR-8 = assay: NCI single dose screen, OVCAR-8; assay type: cell-based; details: Homo sapiens; OVCAR-8, ovarian cancer; single dose 10^−5 M; read-out: growth inhibition percentage
Method: as §1, §2

MDA-MB-231/ATCC = assay: NCI single dose screen, MDA-MB-231/ATCC; assay type: cell-based; details: Homo sapiens, breast cancer, single dose 10^−5 M, read-out: growth inhibition percentage
Method: as §1, §2

HCC-2998 = assay: NCI single dose screen, HCC-2998; assay type: cell-based; details: Homo sapiens; HCC-2998, colon cancer; single dose 10^−5 M; read-out: growth inhibition percentage
Method: as §1, §2

[2] = molecular target: T1, double mutant EGFR^L858R/T790M (Homo sapiens, UniProt P00533, L858R/T790M); assay: In vitro EGFR inhibition assay, double mutant; assay type: biochemical; details: for IC50: double mutant EGFR; for Selectivity (SI): ratio of the IC50 values EGFR^WT/EGFR^L858R/T790M
T1 construct: purchased AssayQuant Technologies, Inc. (Marlboro, MA, USA)

U251 = assay: NCI single dose screen, U251; assay type: cell-based; details: Homo sapiens, U-251; U251, CNS cancer; single dose 10^−5 M; read-out: growth inhibition percentage
Method: as §1, §2

SK-MEL-5 = assay: NCI single dose screen, SK-MEL-5; assay type: cell-based; details: Homo sapiens; SK-MEL-5, melanoma; single dose 10^−5 M; read-out: growth inhibition percentage
Method: as §1, §2

[3] = system: LPS-induced IL-6 production in RAW 264.7 cells; assay: IL-6 production in LPS-activated RAW 264.7 cells (ELISA); assay type: cell-based; details: LPS-activated RAW 264.7 cells treated with 25 µM of the compound
SK-MEL-28 = assay: NCI single dose screen, SK-MEL-28; assay type: cell-based; details: Homo sapiens; SK-MEL-28, melanoma; single dose 10^−5 M; read-out: growth inhibition percentage
Method: as §1, §2

SN12C = assay: NCI single dose screen, SN12C; assay type: cell-based; details: Homo sapiens, renal cancer, single dose 10^−5 M, read-out: growth inhibition percentage
Method: as §1, §2

OVCAR-3 = assay: NCI single dose screen, OVCAR-3; assay type: cell-based; details: Homo sapiens; OVCAR-3, ovarian cancer; single dose 10^−5 M; read-out: growth inhibition percentage
Method: as §1, §2

T1 sequence (P00533 25-1210 T790M/L858R): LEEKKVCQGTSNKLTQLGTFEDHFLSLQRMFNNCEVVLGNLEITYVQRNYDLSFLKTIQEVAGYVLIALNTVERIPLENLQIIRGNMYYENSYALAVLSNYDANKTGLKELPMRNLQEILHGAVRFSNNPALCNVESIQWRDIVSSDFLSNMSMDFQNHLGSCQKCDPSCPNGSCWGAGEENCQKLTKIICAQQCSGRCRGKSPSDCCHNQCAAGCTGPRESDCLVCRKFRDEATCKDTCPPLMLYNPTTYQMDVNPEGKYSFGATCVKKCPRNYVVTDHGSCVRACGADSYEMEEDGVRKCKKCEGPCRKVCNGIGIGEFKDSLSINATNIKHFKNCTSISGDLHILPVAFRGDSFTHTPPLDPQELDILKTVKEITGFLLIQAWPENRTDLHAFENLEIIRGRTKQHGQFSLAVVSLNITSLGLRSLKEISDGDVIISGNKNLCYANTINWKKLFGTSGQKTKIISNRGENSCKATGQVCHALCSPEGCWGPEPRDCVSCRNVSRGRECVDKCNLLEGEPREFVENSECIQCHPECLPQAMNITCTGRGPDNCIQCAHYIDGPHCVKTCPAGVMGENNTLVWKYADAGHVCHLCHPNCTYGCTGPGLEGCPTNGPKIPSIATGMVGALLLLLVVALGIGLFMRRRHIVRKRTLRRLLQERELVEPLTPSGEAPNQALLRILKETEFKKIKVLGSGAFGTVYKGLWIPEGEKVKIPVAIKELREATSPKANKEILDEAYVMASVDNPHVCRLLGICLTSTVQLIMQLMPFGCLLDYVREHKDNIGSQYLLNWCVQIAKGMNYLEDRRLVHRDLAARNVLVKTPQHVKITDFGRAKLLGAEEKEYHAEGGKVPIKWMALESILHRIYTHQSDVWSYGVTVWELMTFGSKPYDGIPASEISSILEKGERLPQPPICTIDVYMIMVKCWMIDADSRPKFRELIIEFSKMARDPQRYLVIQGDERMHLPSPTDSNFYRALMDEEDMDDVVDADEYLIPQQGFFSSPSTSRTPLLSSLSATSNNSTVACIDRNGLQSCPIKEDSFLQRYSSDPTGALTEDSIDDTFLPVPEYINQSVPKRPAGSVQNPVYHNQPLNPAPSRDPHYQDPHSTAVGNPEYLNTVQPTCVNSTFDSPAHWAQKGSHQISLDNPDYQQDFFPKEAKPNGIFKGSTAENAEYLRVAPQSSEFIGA

CN1CN(NC(=O)Nc2ccccc2)C(=O)c2ccccc21 [Compound 6a, 1-(1-Methyl-4-oxo-1,4-dihydroquinazolin-3(2H)-yl)-3-phenylurea]
inhibition at 10 µM (MOLT-4): < 10%
inhibition at 10 µM (A549/ATCC): < 10%
inhibition at 10 µM (HCT-116): < 10%
inhibition at 10 µM (SNB-19): < 10%
inhibition at 10 µM (HS 578T): < 10%
inhibition at 10 µM (SF-268): < 10%
inhibition at 10 µM (HOP-62): < 10%
TNF-α concentration [1]: 1157.00 ± 78.71 pg/mL
inhibition at 10 µM (COLO 205): < 10%
inhibition at 10 µM (786-0): < 10%
inhibition at 10 µM (IGROV1): < 10%
inhibition at 10 µM (RPMI-8226): < 10%
inhibition at 10 µM (HL-60(TB)): < 10%
inhibition at 10 µM (MDA-MB-435): < 10%
inhibition at 10 µM (SF-295): < 10%
inhibition at 10 µM (UO-31): < 10%
inhibition at 10 µM (LOX IMVI): < 10%
inhibition at 10 µM (OVCAR-5): < 10%
inhibition at 10 µM (MCF7): < 10%
inhibition at 10 µM (T-47D): < 10%
inhibition at 10 µM (MALME-3M): < 10%
inhibition at 10 µM (M14): < 10%
inhibition at 10 µM (OVCAR-8): < 10%
inhibition at 10 µM (MDA-MB-231/ATCC): < 10%
inhibition at 10 µM (HCC-2998): < 10%
IC50 [2]: 0.46 ± 1.11 µM
Selectivity (SI) [2]: >217
inhibition at 10 µM (U251): < 10%
inhibition at 10 µM (SK-MEL-5): < 10%
IL-6 concentration [3]: 173.7 ± 4.77 pg/mL
inhibition at 10 µM (SK-MEL-28): < 10%
inhibition at 10 µM (SN12C): < 10%
inhibition at 10 µM (OVCAR-3): < 10%

CN1c2ccccc2C(=O)N(NC(=O)Nc2ccccc2)C1c1ccc(F)cc1 (stereo not drawn) [Compound 6d, 1-(2-(4-Fluorophenyl)-1-methyl-4-oxo-1,4-dihydroquinazolin-3(2H)-yl)-3-phenylurea]
inhibition at 10 µM (MOLT-4): 11.1%
inhibition at 10 µM (A549/ATCC): < 10%
inhibition at 10 µM (HCT-116): < 10%
inhibition at 10 µM (SNB-19): < 10%
inhibition at 10 µM (HS 578T): < 10%
inhibition at 10 µM (SF-268): < 10%
inhibition at 10 µM (HOP-62): < 10%
TNF-α concentration [1]: 1222.00 ± 12.70 pg/mL
inhibition at 10 µM (COLO 205): < 10%
inhibition at 10 µM (786-0): 11.9%
inhibition at 10 µM (IGROV1): < 10%
inhibition at 10 µM (RPMI-8226): < 10%
inhibition at 10 µM (HL-60(TB)): < 10%
inhibition at 10 µM (MDA-MB-435): < 10%
inhibition at 10 µM (SF-295): < 10%
inhibition at 10 µM (UO-31): 36.2%
inhibition at 10 µM (LOX IMVI): < 10%
inhibition at 10 µM (OVCAR-5): < 10%
inhibition at 10 µM (MCF7): < 10%
inhibition at 10 µM (T-47D): < 10%
inhibition at 10 µM (MALME-3M): < 10%
inhibition at 10 µM (M14): < 10%
inhibition at 10 µM (OVCAR-8): < 10%
inhibition at 10 µM (MDA-MB-231/ATCC): < 10%
inhibition at 10 µM (HCC-2998): < 10%
IC50 [2]: 5.57 ± 1.78 µM
Selectivity (SI) [2]: >17.9
inhibition at 10 µM (U251): < 10%
inhibition at 10 µM (SK-MEL-5): < 10%
IL-6 concentration [3]: 358.7 ± 12.85 pg/mL
inhibition at 10 µM (SK-MEL-28): < 10%
inhibition at 10 µM (SN12C): < 10%
inhibition at 10 µM (OVCAR-3): 12.5%

From publication PMC10114980, “Triple targeting of mutant EGFR^L858R/T790M, COX-2, and 15-LOX: design and synthesis of novel quinazolinone tethered phenyl urea derivatives for anti-inflammatory and anticancer evaluation” (Journal of Enzyme Inhibition and Medicinal Chemistry, 2023)
